Test results: patent US10597388B2, “Pyridazinone herbicides” (FMC CORPORATION, priority 2014, dated 2020)

Assays:
Format in all cases: in vivo
[1] = tested on: barnyardgrass (Echinochloa crus-galli); experiment: Test A greenhouse herbicide test, pre- and postemergence
In short: (§1)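 Seeds in loam–sand blend received a preemergence directed soil spray; plants at 2–10 cm, one- to two-leaf stage, received postemergence sprays. Compounds in a non-phytotoxic solvent with surfactant. After about 10 d in a greenhouse, injury rated visually versus untreated controls on a 0–100 scale (100 = complete control).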

kochia (Kochia scoparia) = experiment: as above
In short: as §1

corn (Zea mays) = experiment: Test C greenhouse herbicide test, pre- and postemergence
In short: (§2)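 Seeds sown in loam–sand blend treated preemergence; plants in peat-based medium sprayed postemergence at 2–18 cm (1- to 4-leaf stage); chemicals in non-phytotoxic solvent with surfactant. Greenhouse 13–15 d, then visual rating versus controls on 0–100 scale (0 no effect, 100 complete control).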

[2] = tested on: crabgrass, large (large crabgrass, Digitaria sanguinalis); experiment: as above
In short: as §2

[3] = tested on: foxtail, giant (giant foxtail, Setaria faberii); experiment: as above
In short: as §2

[4] = tested on: johnsongrass (Sorghum halepense); experiment: as above
In short: as §2

[5] = tested on: lambsquarters (Chenopodium album); experiment: as above
In short: as §2

[6] = tested on: morningglory (Ipomoea coccinea); experiment: as above
In short: as §2

[7] = tested on: oilseed rape (Brassica napus); experiment: as above
In short: as §2

[8] = tested on: waterhemp (common waterhemp, Amaranthus rudis); experiment: as above
In short: as §2

[9] = tested on: wheat (winter wheat, Triticum aestivum); experiment: as above
In short: as §2

[10] = Postemergence, 125 g ai/ha, 0 to 100 scale where 0 is no effect and 100 is complete control
[11] = Postemergence, 500 g ai/ha, 0 to 100 scale, 0 is no effect, 100 is complete control
[12] = Preemergence, 125 g ai/ha, 0 to 100 scale where 0 is no effect and 100 is complete control
[13] = Postemergence, 31 g ai/ha, 0 to 100 scale (0 no effect, 100 complete control)
[14] = Postemergence, 125 g ai/ha, scale 0 to 100, 0 is no effect, 100 is complete control
[15] = Postemergence, 250 g ai/ha, scale 0 to 100, 0 no effect, 100 complete control, 13 to 15 d
[16] = Preemergence, 31 g ai/ha, scale 0 to 100, 0 is no effect, 100 is complete control
[17] = Preemergence, 62 g ai/ha, scale 0 to 100, 0 is no effect, 100 is complete control
[18] = Preemergence, 125 g ai/ha, scale 0 to 100, 0 is no effect, 100 is complete control
[19] = Preemergence, 250 g ai/ha, scale 0 to 100, 0 no effect, 100 complete control
[20] = postemergence, 62 g ai/ha, scale 0 to 100, 0 no effect, 100 complete control

Cc1ccc2ccccc2c1-c1c(OC(=O)OC(C)C)c(C)nn(C)c1=O [Compound 72]
0: Plant response rating, Corn (corn (Zea mays); [16]) | Plant response rating, Corn (corn (Zea mays); [17]) | Plant response rating, Corn (corn (Zea mays); [18]) | Plant response rating, Johnsongrass [4, 16] | Plant response rating, Wheat [9, 16] | Plant response rating, Wheat [9, 17]
5: Corn plant response rating (corn (Zea mays); [13]) | Johnsongrass plant response rating [4, 13] | Plant response rating, Johnsongrass [4, 14] | Johnsongrass plant response rating [4, 20] | Plant response rating, Wheat [9, 14]
40: Oilseed Rape plant response rating [7, 13] | Wheat plant response rating [9, 19]
50: Kochia plant response rating (kochia (Kochia scoparia); [12]) | Foxtail, Giant plant response rating [3, 13]
60: Barnyardgrass plant response rating [1, 11] | Plant response rating, Kochia (kochia (Kochia scoparia); [10]) | Plant response rating, Crabgrass, Large [2, 15] | Plant response rating, Crabgrass, Large [2, 16] | Plant response rating, Foxtail, Giant [3, 16] | Plant response rating, Lambsquarters [5, 16]
95: Plant response rating, Lambsquarters [5, 15] | Plant response rating, Morningglory [6, 14]
75: Plant response rating, Foxtail, Giant [3, 14] | Plant response rating, Morningglory [6, 16] | Plant response rating, Waterhemp [8, 16]
10: Barnyardgrass plant response rating [1, 12] | Corn plant response rating (corn (Zea mays); [20]) | Crabgrass, Large plant response rating [2, 13]
90: Kochia plant response rating (kochia (Kochia scoparia); [11]) | Plant response rating, Lambsquarters [5, 14] | Lambsquarters plant response rating [5, 19] | Plant response rating, Morningglory [6, 18] | Morningglory plant response rating [6, 19] | Morningglory plant response rating [6, 20] | Plant response rating, Waterhemp [8, 17] | Plant response rating, Waterhemp [8, 18] | Waterhemp plant response rating [8, 19]
35: Plant response rating, Crabgrass, Large [2, 14] | Plant response rating, Oilseed Rape [7, 17] | Oilseed Rape plant response rating [7, 20] | Plant response rating, Wheat [9, 15]
45: Plant response rating, Johnsongrass [4, 15]
70: Plant response rating, Foxtail, Giant [3, 17] | Foxtail, Giant plant response rating [3, 20] | Waterhemp plant response rating [8, 13]
80: Plant response rating, Crabgrass, Large [2, 17] | Plant response rating, Johnsongrass [4, 18] | Morningglory plant response rating [6, 13] | Plant response rating, Oilseed Rape [7, 18] | Oilseed Rape plant response rating [7, 19]
100: Plant response rating, Barnyardgrass ([1]; Preemergence, 500 g ai/ha, 0 to 100 scale, 0 no effect, 100 complete control) | Plant response rating, Kochia (kochia (Kochia scoparia); Preemergence, 500 g ai/ha, 0 to 100 scale where 0 is no effect and 100 is complete control) | Plant response rating, Morningglory [6, 15]
25: Plant response rating, Corn (corn (Zea mays); [15]) | Crabgrass, Large plant response rating [2, 20] | Plant response rating, Johnsongrass [4, 17]
85: Crabgrass, Large plant response rating [2, 19] | Plant response rating, Foxtail, Giant [3, 15] | Plant response rating, Foxtail, Giant [3, 18] | Foxtail, Giant plant response rating [3, 19] | Johnsongrass plant response rating [4, 19] | Lambsquarters plant response rating [5, 13] | Plant response rating, Lambsquarters [5, 18] | Lambsquarters plant response rating [5, 20] | Plant response rating, Morningglory [6, 17] | Plant response rating, Oilseed Rape [7, 15] | Plant response rating, Waterhemp [8, 14] | Plant response rating, Waterhemp [8, 15]
20: Plant response rating, Barnyardgrass [1, 10] | Plant response rating, Corn (corn (Zea mays); [14]) | Corn plant response rating (corn (Zea mays); [19]) | Plant response rating, Oilseed Rape [7, 14]
65: Plant response rating, Crabgrass, Large [2, 18] | Plant response rating, Lambsquarters [5, 17] | Waterhemp plant response rating [8, 20]
30: Plant response rating, Oilseed Rape [7, 16] | Wheat plant response rating [9, 13] | Plant response rating, Wheat [9, 18] | Wheat plant response rating [9, 20]
